The values below come from PMC3919815, “Anti-Tumor Effects of Novel 5-O-Acyl Plumbagins Based on the Inhibition of Mammalian DNA Replicative Polymerase Activity” (PLoS ONE, 2014).

Several values for one entry are separate records, joined by “and”; a condition that tells them apart may be missing. Equal values may be shown once. Read-outs that look alike come from different tables or passages of the source.

In one assay the target is T1, Mouse pol ι (Mus musculus, UniProt Q6R3M4).
T1 construct: His6 (C); made in house
Kind of assay: DNA polymerase activity inhibition. It is filed as biochemical. Particulars: 0.05 units enzyme; mean ± SD (n = 3). An excerpt: (§1) Pol α was purified from calf thymus by immunoaffinity column chromatography as described by Tamai et al.. Recombinant rat pol β was purified from Escherichia coli JMpβ5 as described by Date et al.. The human pol γ catalytic gene was cloned into pFastBac. Histidine-tagged enzyme was expressed using the BACTO-BAC HT Baculovirus Expression System according to the manufacturer's instructions (Life Technologies, Frederick, MD, USA) and purified using ProBound resin (Invitrogen Japan, Tokyo Japan). Human pols δ and ε were purified by nuclear fractionation of human peripheral blood cancer cells (Molt-4) using the second subunit of pol δ and ε-conjugated affinity column chromatography, respectively. A truncated form of human pol η (residues 1–511) tagged with His6 at its C-terminal was expressed in E. coli cells and purified as described by Kusumoto et al.. A recombinant mouse pol ι tagged with His6 at its C-terminal was expressed and purified by Ni–NTA column chromatography. A truncated form of pol κ (residues 1–560) with 6× His-tags attached at the C-terminus was overexpressed in E. coli and purified as described by Ohashi et al.. Recombinant human His-pol λ was overexpressed and purified according to a method described by Shimazaki et al.. Recombinant human His-pol μ was overexpressed in E. coli BL21 and purified using Glutathione Sepharose 4B (GE Healthcare Bio-Science Corp., Piscataway, NJ, USA) column chromatography according to the method for pol λ preparation by Shimazaki et al.. Pol α from a higher plant, cauliflower, was purified from the inflorescence structure according to the methods outlined by Sakaguchi et al.. Recombinant rice (Oryza sativa L. cv. Nipponbare) pol λ tagged with His6 at the C-terminus was expressed in E. coli and purified as described by Uchiyama et al.. Calf TdT, Taq pol, T4 pol, T7 RNA polymerase, and T4 polynucleotide kinase were purchased from Takara Bio Inc. (Kyoto, Japan). The Klenow fragment of pol I from E. coli was purchased from Worthington Biochemical Corp. (Freehold, NJ, USA). Bovine pancreas deoxyribonuclease I was obtained from Stratagene Cloning Systems (La Jolla, CA, USA).
(§2) The reaction mixtures for calf pol α, rat pol β, plant pol α, and prokaryotic pols have been described previously, [35]; those for pol γ as well as pols δ and ε were previously described by Umeda et al. and Ogawa et al., respectively. Those for pols η, ι, and κ were the same as for pol α, and those for pols λ and μ were the same as for pol β. For the pol reactions, poly(dA)/oligo(dT)18 (A/T, 2/1) and dTTP were used as the DNA template-primer substrate and nucleotide (dNTP; 2′-deoxynucleoside-5′-triphosphate) substrate, respectively. For the TdT reactions, oligo(dT)18 (3′-OH) and dTTP were used as the DNA primer substrate and nucleotide substrate, respectively.
(§3) The chemically synthesized 5-O-acyl plumbagins (2a–j) were dissolved in distilled dimethyl sulfoxide (DMSO) to various concentrations and sonicated for 30 s. Subsequently, 4 µL aliquots were mixed with 16 µL of each enzyme (0.05 units) in 50 mM Tris-HCl at pH 7.5, containing 1 mM dithiothreitol, 50% glycerol (by vol), and 0.1 mM ethylenediaminetetraacetic acid and held at 0°C for 10 min. These inhibitor-enzyme mixtures in 8 µL volumes were next added to 16 µL of enzyme standard reaction mixture and incubated at 37°C for 60 min, except for Taq pol, which was incubated at 74°C for 60 min. Activity without inhibitor was considered 100%, and the relative activity was determined for each inhibitor concentration. One unit of pol activity was defined as the amount of each enzyme that catalyzed the incorporation of 1 nmol dTTP into synthetic DNA template primers in 60 min, at 37°C, and under standard reaction conditions, [35].

Assay [1] relates to nine human cancer cell lines. Kind of assay: Cancer cell viability, MTT assay, summary over the panel. Type of assay: cell-based. As to conditions: range over nine cell lines, 48 h. The procedure: (§4) The following human cancer cell lines were obtained from the American Type Culture Collection (Manassas, VA, USA): lung (A549), prostate (DU145 and PC3), colon (HCT116 and HT-29), cervix (HeLa), hepatocellular liver (HepG2), breast (MCF-7), and pancreatic cancer (PANC-1). These cells were cultured in RPMI 1640 medium supplemented with 10% fetal bovine serum, penicillin (100 units/mL), streptomycin (100 µg/mL), and 1.6 mg/mL NaHCO3 at 37°C in a humid atmosphere of 5% CO2/95% air. For the cell viability assay, cells were seeded at 1×10^3 cells/well in a 96-well microplate with various concentrations of the test compounds, and incubated for 48 h. MTT (3-(4,5-dimethylthiazol-2-yl)-2,5-diphenyl tetrazolium bromide) solution was added to a final concentration 0.6 mg/mL in Milli-Q purified water for 2 h, after which time the medium was discarded and the cells lysed in DMSO. A540 was then measured in a microplate reader (Model 680, Bio-Rad Laboratories, Hercules, CA, USA).
A general note: Formazan colour is commonly taken as a measure of viable cells.

For another assay, the system named is DU145 (prostate cancer). The assay is described as follows: Cancer cell viability, MTT assay. It is filed as cell-based, human. As to conditions: 48 h, mean ± SD (n = 5). The procedure:
as §4

A further assay has as its system MCF-7 (breast cancer). The assay is described as follows: Cancer cell viability, MTT assay. It is filed as cell-based, human. Particulars: 48 h, mean ± SD (n = 5). The procedure:
as §4

Assay [2] has as its system HepG2 (hepatocellular liver cancer). Kind of assay: Cancer cell viability, MTT assay. It is filed as cell-based, human. As to conditions: 48 h, mean ± SD (n = 5). The procedure: as §4
Another assay deals with HCT116 (colon cancer). Kind of assay: Cancer cell viability, MTT assay. It is filed as cell-based, human. Particulars: 48 h. The protocol:
as §4

For another assay, the system named is A549 (lung cancer). The assay is described as follows: Cancer cell viability, MTT assay. Type of assay: cell-based, human. As to conditions: 48 h, mean ± SD (n = 5). The protocol: as §4
Assay [3] concerns PANC-1 (pancreatic cancer). The assay is described as follows: Cancer cell viability, MTT assay. It is filed as cell-based, human. As to conditions: 48 h, mean ± SD (n = 5). The procedure: as §4
A further assay relates to PC3 (prostate cancer). Kind of assay: Cancer cell viability, MTT assay. Particulars: 48 h, mean ± SD (n = 5). Type of assay: cell-based, human. The protocol: as §4
The next assay has as its system HeLa (cervical cancer). Kind of assay: Cancer cell viability, MTT assay. It is filed as cell-based, human. Particulars: 48 h, mean ± SD (n = 5). The procedure: as §4
Assay [4] concerns HT-29 cells (colon cancer). Kind of assay: Cancer cell viability, MTT assay. It is filed as cell-based, human. Particulars: 48 h, mean ± SD (n = 5). The protocol:
as §4

The target in the next assay is T2, Rice pol λ (Oryza sativa subsp. japonica, UniProt Q67VC8).
T2 construct: His6 (C); made in house; host or cells: E. coli
The assay is described as follows: DNA polymerase activity inhibition. Type of assay: biochemical, rice (Oryza sativa L. cv. Nipponbare). An excerpt: (§5) Pol α was purified from calf thymus by immunoaffinity column chromatography as described by Tamai et al.. Recombinant rat pol β was purified from Escherichia coli JMpβ5 as described by Date et al.. The human pol γ catalytic gene was cloned into pFastBac. Histidine-tagged enzyme was expressed using the BACTO-BAC HT Baculovirus Expression System according to the manufacturer's instructions (Life Technologies, Frederick, MD, USA) and purified using ProBound resin (Invitrogen Japan, Tokyo Japan). Human pols δ and ε were purified by nuclear fractionation of human peripheral blood cancer cells (Molt-4) using the second subunit of pol δ and ε-conjugated affinity column chromatography, respectively. A truncated form of human pol η (residues 1–511) tagged with His6 at its C-terminal was expressed in E. coli cells and purified as described by Kusumoto et al.. A recombinant mouse pol ι tagged with His6 at its C-terminal was expressed and purified by Ni–NTA column chromatography. […]
(§6) The chemically synthesized 5-O-acyl plumbagins (2a–j) were dissolved in distilled dimethyl sulfoxide (DMSO) to various concentrations and sonicated for 30 s. […] Activity without inhibitor was considered 100%, and the relative activity was determined for each inhibitor concentration. […]

A further assay relates to mammalian pols. Kind of assay: DNA polymerase activity inhibition, summary over the panel. It is filed as biochemical.
Excerpt: as §1, §2, §3

A further assay addresses T3, Calf TdT (Bos taurus, UniProt P06526).
T3 construct: purchased Takara Bio Inc. (Kyoto, Japan)
Kind of assay: TdT activity inhibition. It is filed as biochemical. As to conditions: 0.05 units enzyme; mean ± SD (n = 3).
Excerpt: as §5, §6

T2 sequence (Q67VC8 whole entry): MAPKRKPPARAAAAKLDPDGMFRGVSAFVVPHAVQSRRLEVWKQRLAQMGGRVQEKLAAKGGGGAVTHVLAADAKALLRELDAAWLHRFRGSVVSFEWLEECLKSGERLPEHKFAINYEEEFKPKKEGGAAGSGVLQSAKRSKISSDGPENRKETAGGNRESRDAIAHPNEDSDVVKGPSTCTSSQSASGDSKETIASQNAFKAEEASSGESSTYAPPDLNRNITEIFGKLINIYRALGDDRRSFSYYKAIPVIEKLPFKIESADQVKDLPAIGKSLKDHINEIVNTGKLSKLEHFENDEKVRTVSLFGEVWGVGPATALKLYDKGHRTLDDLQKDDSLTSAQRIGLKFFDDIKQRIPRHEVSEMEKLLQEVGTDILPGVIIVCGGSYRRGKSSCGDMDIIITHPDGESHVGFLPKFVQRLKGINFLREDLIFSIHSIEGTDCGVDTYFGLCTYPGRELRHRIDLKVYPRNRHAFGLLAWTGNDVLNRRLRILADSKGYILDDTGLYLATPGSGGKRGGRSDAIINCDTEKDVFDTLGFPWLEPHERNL
T3 sequence (P06526 whole entry): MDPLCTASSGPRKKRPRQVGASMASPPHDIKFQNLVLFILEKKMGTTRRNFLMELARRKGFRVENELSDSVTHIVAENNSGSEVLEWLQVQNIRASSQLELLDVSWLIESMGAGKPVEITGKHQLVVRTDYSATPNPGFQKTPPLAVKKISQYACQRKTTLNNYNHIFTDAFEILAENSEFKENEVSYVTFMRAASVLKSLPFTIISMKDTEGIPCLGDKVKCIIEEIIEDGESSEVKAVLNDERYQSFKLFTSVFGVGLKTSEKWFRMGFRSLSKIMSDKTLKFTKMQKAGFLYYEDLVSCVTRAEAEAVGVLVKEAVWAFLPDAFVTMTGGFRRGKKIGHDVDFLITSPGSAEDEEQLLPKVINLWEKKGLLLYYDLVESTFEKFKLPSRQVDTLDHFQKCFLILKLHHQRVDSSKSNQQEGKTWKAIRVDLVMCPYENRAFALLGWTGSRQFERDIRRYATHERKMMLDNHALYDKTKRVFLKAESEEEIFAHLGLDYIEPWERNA
T1 sequence (Q6R3M4 whole entry): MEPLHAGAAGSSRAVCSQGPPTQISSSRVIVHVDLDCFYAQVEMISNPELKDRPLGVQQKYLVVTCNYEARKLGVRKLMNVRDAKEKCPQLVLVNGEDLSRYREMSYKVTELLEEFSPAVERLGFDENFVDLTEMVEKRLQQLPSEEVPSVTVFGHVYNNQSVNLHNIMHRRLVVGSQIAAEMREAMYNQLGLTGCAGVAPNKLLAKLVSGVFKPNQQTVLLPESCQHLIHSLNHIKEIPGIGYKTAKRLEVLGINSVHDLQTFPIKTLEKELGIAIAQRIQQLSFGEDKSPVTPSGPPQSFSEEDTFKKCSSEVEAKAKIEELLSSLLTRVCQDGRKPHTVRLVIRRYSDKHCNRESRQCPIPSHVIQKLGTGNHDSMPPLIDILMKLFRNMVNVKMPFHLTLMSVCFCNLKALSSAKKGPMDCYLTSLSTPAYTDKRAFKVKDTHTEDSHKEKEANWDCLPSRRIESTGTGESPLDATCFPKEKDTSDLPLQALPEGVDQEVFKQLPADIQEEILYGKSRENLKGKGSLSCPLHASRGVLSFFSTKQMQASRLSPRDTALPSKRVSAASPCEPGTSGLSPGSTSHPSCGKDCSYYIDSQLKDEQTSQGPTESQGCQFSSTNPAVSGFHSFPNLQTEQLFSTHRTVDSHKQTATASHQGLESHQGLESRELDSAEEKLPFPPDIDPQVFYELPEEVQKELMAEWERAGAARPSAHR

Regarding `CCCCCCCC/C=C\CCCCCCCC(=O)Oc1cccc2c1C(=O)C=C(C)C2=O` [2f, 5-O-oleoyl-2-methyl-1,4-naphthoquinone], the IC50 at Mouse pol ι was 8.2 ± 0.43 µM; against Rice pol λ (0.05 units enzyme), over 100 µM; on mammalian pols (B family of pols, read-out: 50% inhibition dose), 4.8 to 5.3 µM; on mammalian pols (X family of pols, read-out: 50% inhibition dose), 9.2 to 10.6 µM; at mammalian pols (Y family of pols, read-out: 50% inhibition dose), 7.6 to 8.2 µM; on mammalian pols (all of the mammalian pols (11 species), read-out: IC50 values), 4.5 to 10.6 µM. This molecule also returned an IC50 at Calf TdT of 10.6 ± 0.5 µM. In addition, the LD50 values in assay [1] is 2.9 to 21.0 µM; in the assay on DU145 (prostate cancer) it was 8.8 ± 0.9 µM; in the assay on MCF-7 (breast cancer), 7.2 ± 0.7 µM; in assay [2], 7.4 ± 0.8 µM; in the assay with HCT116 (colon cancer) (MTT assay, mean ± SD (n = 5)) it was 6.5 µM and 6.5 ± 0.6 µM; in the assay on A549 (lung cancer), 15.4 ± 1.7 µM. Besides, the LD50 values came out at 16.1 ± 1.8 µM in [3]; 10.0 ± 1.1 µM in the assay on PC3 (prostate cancer); 21.0 ± 2.5 µM in the assay on HeLa (cervical cancer); 2.9 ± 0.4 µM in assay [4]; 2.9 µM in assay [4] (listed as C18:1-acyl plumbagin). In the assay with HCT116 (colon cancer) (10 µM, MTT, control = 100%), the cell proliferation rate result is “less than 40%”. Also, in the assay on HCT116 (colon cancer) (10 and 100 µM, MTT, Fig. 5), the “cell proliferation inhibitory effect compared among the compounds (in words)” value is “strongest effects on cancer cell proliferation suppression”. The “effect on enzyme activity (in words)” value at Rice pol λ is reported as “had no effect”. Moreover, in the assay on mammalian pols, the “inhibitory effect on A and B families of pols, fold stronger than on X and Y families” value was 1.5- to 2 fold. For the same molecule, the “influence of excess poly(rC) and BSA on pol inhibition” value in the assay on mammalian pols (data not shown) was “little or no influence”. Besides, in the assay with mammalian pols (pols α, δ and ε, versus aphidicolin IC50 of ref 45), the “pol inhibitory activity, fold more potent than aphidicolin” value is listed as over 2 fold.
